The structures appear in SMILES notation.

As for `Cc1ccc2cc(NC(=O)c3cccc(SCc4cc(Nc5ccccc5)n[nH]4)c3)ccc2n1` [Example E-1, N-(2-methyl-quinolin-6-yl)-3-[{5-(phenylamino)-2-H-pyrazol-3-yl}methylsulfanyl]benzamide], the melting point was in the range of 172 to 174 °C.

A word on the melting point: it is the temperature, or range, at which the solid turns liquid.
